Data taken from patent US10238618B2, “Compositions and methods for diagnosis and treatment of anemia” (The United States of America as represented by the …, priority 2016, dated 2019).

Tests used:
Assay type in all cases: in vivo, bottlenose dolphin (Tursiops truncatus)
[1] = Serum fatty acid form concentrations (complex lipidomics) in dolphins fed modified diet; details: case dolphins fed modified diet (n = 20)
Procedure: (§1) Determination of serum fatty acid concentrations, including a variety of fatty acid classes, were performed by Metabolon, Inc. (Durham, N.C.) using complex lipidomics. Lipids were extracted from samples using dichloromethane and methanol in a modified Bligh-Dyer extraction in the presence of internal standards with the lower, organic, phase being used for analysis. The extracts were concentrated under nitrogen and reconstituted in 0.25 mL of dichloromethane:methanol (50:50) containing 10 mM ammonium acetate. The extracts were placed in vials for infusion-MS analyses, performed on a SelexION equipped Sciex 5500 QTRAP using both positive and negative mode electrospray. Each sample was subjected to 2 analyses, with IMS-MS conditions optimized for lipid classes monitored in each analysis. The 5500 QTRAP was operated in MRM mode to monitor the transitions for over 1,100 lipids from up to 14 lipid classes. Individual lipid species were quantified based on the ratio of signal intensity for target compounds to the signal intensity for an assigned internal standard of known concentration. Lipid class concentrations were calculated from the sum of all molecular species within a class, and fatty acid compositions were determined by calculating the proportion of individual fatty acids within each class. […]

[2] = Total serum fatty acid concentrations in dolphins fed modified diet; details: for concentration at 0 month / concentration at 1 month / concentration at 3 month / concentration at 6 month: bottlenose dolphin (Tursiops truncatus), Case dolphins fed modified diet (n = 20); for concentration at 0 month: Month 0 (baseline), 2 h postprandial; for concentration at 1 month: Month 1, 2 h postprandial; for concentration at 3 month: Month 3, 2 h postprandial; for concentration at 6 month: Month 6, 2 h postprandial
Procedure: CV % were typically under 10%.
as §1

red blood cell indices = assay: Stepwise and simple linear regression: serum fatty acids as predictors of red blood cell indices; details: Group A dolphins on the modified diet
Procedure: Fatty acids that were independent predictors of red blood cell indices were then tested for linear associations with red blood cell indices using simple linear regressions.

[3] = Serum total fatty acids (% of total fatty acids), MMP dolphins versus wild Sarasota Bay dolphins
From the text: Dolphins at the Navy Marine Mammal Program (MMP) are a well-studied dolphin population with regard to chronic diseases and diseases of aging, and this population is more susceptible to anemia (lower packed cell volume and lower hemoglobin) compared to wild dolphins living in Sarasota Bay, Fla. (Table 1). MMP dolphins also have lower total serum odd chain saturated fatty acids and lower very long even chain saturated fatty acids compared to Sarasota Bay dolphins (Table 1, See also Venn-Watson et al. (2016) Increased dietary intake of saturated fatty acid heptadecanoic acid (C17:0) associated with decreasing ferritin and alleviated metabolic syndrome in dolphins. […] Proposed risk factors for anemia in MMP dolphins can include advanced age, chronic disease, and diet (see Venn-Watson S, Smith C R, Gomez F, Jensen E D (2011) Physiology of aging among healthy, older bottlenose dolphins (Tursiops truncatus): comparisons with aging humans. J Comp Phys B 181:667-680). It can be hypothesized that differences in dietary fish (and differences in certain fatty acids associated with particular types of fish) can be responsible for the risk of anemia.

[4] = wild Sarasota Bay Dolphins (n = 19)

Row | Compound | Serum concentrations of fatty acid forms ([1]; Month 0 (baseline)) [µM] | Serum concentrations of fatty acid forms ([1]; Month 1) [µM] | Serum concentrations of fatty acid forms ([1]; Month 3) [µM] | Serum concentrations of fatty acid forms ([1]; Month 6) [µM] | other results
1 | CCCCCCCCCCCCCC(=O)O[C@H]1CC[C@@]2(C)C(=CC[C@H]3[C@@H]4CC[C@H]([C@H](C)CCCC(C)C)[C@@]4(C)CC[C@@H]32)C1 [C14:0 CE] | 126 ± 32 | 86 ± 21 | 93 ± 20 | 92 ± 25 | –
2 | CCCCCCCCCCCCCC(=O)O [C14:0, myristic acid] | – | – | – | – | concentration at 0 month ([2]; serum, oral): 243 ± 63 µM; concentration at 1 month ([2]; serum, oral): 195 ± 50 µM; concentration at 3 month ([2]; serum, oral): 226 ± 46 µM; concentration at 6 month ([2]; serum, oral): 206 ± 33 µM
3 | CCCCCCCCCCCCCCC(=O)O[C@H]1CC[C@@]2(C)C(=CC[C@H]3[C@@H]4CC[C@H]([C@H](C)CCCC(C)C)[C@@]4(C)CC[C@@H]32)C1 [C15:0 CE] | 22 ± 5 | 61 ± 19 | 66 ± 17 | 64 ± 22 | Increased serum concentration as independent, linear predictor of red blood cell indices (red blood cell indices): independently predicted improved red blood cell indices
4 | CCCCCCCCCCCCCCC(=O)O [C15:0 FFA] | 3.8 ± 1.3 | 4.2 ± 1.5 | 3.6 ± 0.8 | 3.8 ± 1.3 | –
5 | CCCCCCCCCCCCCCC(=O)O [C15:0, pentadecanoic acid] | – | – | – | – | Increased serum concentration as independent, linear predictor of red blood cell indices (red blood cell indices): independently predicted higher hematocrit, higher packed cell volume, higher hemoglobin, and higher red blood cell counts; Serum fatty acid (%) ([3]; MMP Dolphins (n = 30)): 0.3 ± 0.1%; Serum fatty acid (%) [3, 4]: 1.1 ± 0.4%; concentration at 0 month ([2]; serum, oral): 35 ± 9 µM; concentration at 1 month ([2]; serum, oral): 94 ± 33 µM; concentration at 3 month ([2]; serum, oral): 111 ± 29 µM; concentration at 6 month ([2]; serum, oral): 101 ± 29 µM
6 | CCCCCCCCCCCCCCCC(=O)O[C@H]1CC[C@@]2(C)C(=CC[C@H]3[C@@H]4CC[C@H]([C@H](C)CCCC(C)C)[C@@]4(C)CC[C@@H]32)C1 [C16:0 CE] | 273 ± 50 | 226 ± 41 | 244 ± 33 | 245 ± 48 | –
7 | CCCCCCCCCCCCCCCC(=O)O [C16:0, palmitic acid] | – | – | – | – | concentration at 0 month ([2]; in vivo): 1440 ± 194 µM; concentration at 1 month ([2]; in vivo): 1370 ± 199 µM; concentration at 3 month ([2]; in vivo): 1500 ± 221 µM; concentration at 6 month ([2]; in vivo): 1450 ± 155 µM; Change of total serum concentration versus Month 0 ([2]; in vivo): either did not change or decreased
8 | CCCCCCCCCCCCCCCCC(=O)O[C@H]1CC[C@@]2(C)C(=CC[C@H]3[C@@H]4CC[C@H]([C@H](C)CCCC(C)C)[C@@]4(C)CC[C@@H]32)C1 [C17:0 CE] | 14 ± 4 | 18 ± 7 | 20 ± 8 | 21 ± 9 | –
9 | CCCCCCCCCCCCCCCCC(=O)O [C17:0, heptadecanoic acid] | – | – | – | – | Increased serum concentration as independent, linear predictor of red blood cell indices (red blood cell indices): independently predicted higher hematocrit, higher packed cell volume, higher hemoglobin, and higher red blood cell counts; Serum fatty acid (%) ([3]; MMP Dolphins (n = 30)): 0.3 ± 0.1%; Serum fatty acid (%) [3, 4]: 1.3 ± 0.4%; concentration at 0 month ([2]; serum, oral): 51 ± 9 µM; concentration at 1 month ([2]; serum, oral): 82 ± 21 µM; concentration at 3 month ([2]; serum, oral): 93 ± 23 µM; concentration at 6 month ([2]; serum, oral): 85 ± 15 µM
10 | CCCCCCCCCCCCC/C=C/[C@@H](O)[C@H](CO)NC(=O)CCCCCCCCCCCCCCCCCCC [C20:0 CER] | 0.50 ± 0.10 | 0.39 ± 0.08 | 0.42 ± 0.08 | 0.41 ± 0.07 | –
11 | CCCCCCCCCCCCCCCCCCCC(=O)O [C20:0 FFA] | 6.6 ± 2.5 | 4.4 ± 1.4 | 5.0 ± 2.3 | 17 ± 10 | –
12 | CCCCCCCCCCCCCCCCCCCC(=O)O [C20:0] | – | – | – | – | Serum fatty acid (%) ([3]; MMP Dolphins (n = 30)): 0.9 ± 0.2%; Serum fatty acid (%) [3, 4]: 1.5 ± 0.3%
13 | CCCCCCCCCCCCC/C=C/[C@@H](O)[C@H](CO)NC(=O)CCCCCCCCCCCCCCCCCCCCC [C22:0 CER] | 0.19 ± 0.04 | 0.23 ± 0.05 | 0.26 ± 0.07 | 0.25 ± 0.06 | –
14 | CCCCCCCCCCCCCCCCCCCCCC(=O)O[C@H]1CC[C@@]2(C)C(=CC[C@H]3[C@@H]4CC[C@H]([C@H](C)CCCC(C)C)[C@@]4(C)CC[C@@H]32)C1 [C22:0 CE] | 8.5 ± 2.4 | 5.7 ± 1.5 | 5.9 ± 1.5 | 6.3 ± 2.1 | –
15 | CCCCCCCCCCCCCCCCCCCCCC(=O)O [C22:0, behenic acid] | – | – | – | – | Serum fatty acid (%) ([3]; MMP Dolphins (n = 30)): 0.2 ± 0.04%; Serum fatty acid (%) [3, 4]: 0.7 ± 0.2%; concentration at 0 month ([2]; in vivo): 23 ± 4 µM; concentration at 1 month ([2]; in vivo): 21 ± 3 µM; concentration at 3 month ([2]; in vivo): 23 ± 3 µM; concentration at 6 month ([2]; in vivo): 24 ± 5 µM
16 | CCCCCCCCCCCCCCCCCCCCCCCC(=O)N[C@@H](CO)[C@H](O)CCCCCCCCCCCCCCC [C24:0 DCER] | 0.07 ± 0.02 | 0.11 ± 0.03 | 0.13 ± 0.05 | 0.12 ± 0.03 | –
17 | CCCCCCCCCCCCCCCCCCCCCCCC(=O)O [C24:0] | – | – | – | – | Serum fatty acid (%) ([3]; MMP Dolphins (n = 30)): 0.1 ± 0.0%; Serum fatty acid (%) [3, 4]: 0.5 ± 0.1%
18 | CCCCCCCCCCCCCCCCCCCCCCCCCC(=O)O [C26:0] | – | – | – | – | Change of total serum concentration versus Month 0 ([2]; in vivo): increased
